For 22 compounds, IC50 results are on record in patent US9751887B2, “Imidazo[1,2-b]pyridazine derivatives as kinase inhibitors” (Daiichi Sankyo Company, Limited, priority 2012, dated 2017).

Assay [1] concerns the target T1, ROS1 (Homo sapiens, UniProt P08922).
T1 construct: purchased Carna Biosciences 08-163
Briefly: ROS1 kinase inhibitory activity evaluation (mobility shift, EZ Reader II). In kind it is biochemical. Particulars: ROS1 25 pg/μL, FL-Peptide 22 substrate, three separate measurements. As for the experimental part: Next, a substrate reaction solution was prepared. […] Then, the reaction stop solution was added thereto at a concentration of 40 μL/well. Substrate phosphorylation intensity was measured using EZ Reader II (Caliper Life Sciences).

Assay [2] has as its target T1, ROS1. Briefly: ROS1 autophosphorylation inhibitory activity evaluation (ADP-Glo). It is filed as biochemical. Particulars: 200 nM inactive ROS1, ATP 1 mM, 25° C. 1.5 hours, ADP generated, four separate measurements. As for the experimental part:
Fifty mM HEPES (pH 7.5), 10 mM MgCl2, 0.01% Brij-58, and 2.5 mM DTT were mixed to prepare an enzymatic reaction solution. […] ATP (final concentration: 1 mM) was further added thereto at a concentration of 2.5 μL/well. The resulting plate was left standing at 25° C. for 1.5 hours to cause enzymatic reaction. After the completion of enzymatic reaction, ADP-Glo Reagent-1 (Promega, V9103) was added thereto at a concentration of 2.5 μL/well, and the plate was left standing at room temperature for 60 minutes. Then, ADP-Glo Reagent-2 (Promega) was added thereto at a concentration of 5 μL/well, and the plate was left standing at room temperature for 60 minutes. The amount of ADP generated by the autophosphorylation of ROS1 was measured using EnVision (PerkinElmer Japan). The amount of ADP generated in four separate measurements was defined as the autophosphorylation intensity of ROS1. IC50 values were calculated by curve fitting using GraphPad Prism version 4 (GraphPad software).

Assay [3] deals with HCC78 cells having ROS1 fusion gene. The experiment in a line: HCC78 cell growth assay (CellTiter-Glo). It is filed as cell-based. The conditions noted are these: Homo sapiens, HCC78, 72 h, 72 hours culture, 2% FBS medium, luminescence, four separate measurements; read-out: growth inhibitory effect on HCC78 cells having ROS1 fusion gene IC50. As to the method:
Each compound of the present invention was assayed for its cell growth inhibitory effect using HCC78 cells having ROS1 fusion gene.
The suspension was dispensed at a concentration of 100 μL/well to a 96-well culture plate for cell culture (SUMITOMO BAKELITE, Cat No MS-0096S) (hereinafter, referred to as an assay plate). […] In this context, the final concentration of DMSO was set to 0.4%. Then, the cells were cultured for 72 hours in a CO2 incubator.
CellTiter-Glo Luminescent Cell Viability Assay reagent (Promega, Cat No G7571) was dispensed at a concentration of 100 μL/well to the assay plate. The contents in each well were reacted at room temperature for 10 minutes while stirred using a plate mixer. […] The luminescence intensity of each well was measured using EnVision. The luminescence intensity of each well obtained in four separate measurements was defined as the number of cells. IC50 values were calculated by curve fitting using GraphPad Prism version 4.

T1 sequence (P08922 28-2347): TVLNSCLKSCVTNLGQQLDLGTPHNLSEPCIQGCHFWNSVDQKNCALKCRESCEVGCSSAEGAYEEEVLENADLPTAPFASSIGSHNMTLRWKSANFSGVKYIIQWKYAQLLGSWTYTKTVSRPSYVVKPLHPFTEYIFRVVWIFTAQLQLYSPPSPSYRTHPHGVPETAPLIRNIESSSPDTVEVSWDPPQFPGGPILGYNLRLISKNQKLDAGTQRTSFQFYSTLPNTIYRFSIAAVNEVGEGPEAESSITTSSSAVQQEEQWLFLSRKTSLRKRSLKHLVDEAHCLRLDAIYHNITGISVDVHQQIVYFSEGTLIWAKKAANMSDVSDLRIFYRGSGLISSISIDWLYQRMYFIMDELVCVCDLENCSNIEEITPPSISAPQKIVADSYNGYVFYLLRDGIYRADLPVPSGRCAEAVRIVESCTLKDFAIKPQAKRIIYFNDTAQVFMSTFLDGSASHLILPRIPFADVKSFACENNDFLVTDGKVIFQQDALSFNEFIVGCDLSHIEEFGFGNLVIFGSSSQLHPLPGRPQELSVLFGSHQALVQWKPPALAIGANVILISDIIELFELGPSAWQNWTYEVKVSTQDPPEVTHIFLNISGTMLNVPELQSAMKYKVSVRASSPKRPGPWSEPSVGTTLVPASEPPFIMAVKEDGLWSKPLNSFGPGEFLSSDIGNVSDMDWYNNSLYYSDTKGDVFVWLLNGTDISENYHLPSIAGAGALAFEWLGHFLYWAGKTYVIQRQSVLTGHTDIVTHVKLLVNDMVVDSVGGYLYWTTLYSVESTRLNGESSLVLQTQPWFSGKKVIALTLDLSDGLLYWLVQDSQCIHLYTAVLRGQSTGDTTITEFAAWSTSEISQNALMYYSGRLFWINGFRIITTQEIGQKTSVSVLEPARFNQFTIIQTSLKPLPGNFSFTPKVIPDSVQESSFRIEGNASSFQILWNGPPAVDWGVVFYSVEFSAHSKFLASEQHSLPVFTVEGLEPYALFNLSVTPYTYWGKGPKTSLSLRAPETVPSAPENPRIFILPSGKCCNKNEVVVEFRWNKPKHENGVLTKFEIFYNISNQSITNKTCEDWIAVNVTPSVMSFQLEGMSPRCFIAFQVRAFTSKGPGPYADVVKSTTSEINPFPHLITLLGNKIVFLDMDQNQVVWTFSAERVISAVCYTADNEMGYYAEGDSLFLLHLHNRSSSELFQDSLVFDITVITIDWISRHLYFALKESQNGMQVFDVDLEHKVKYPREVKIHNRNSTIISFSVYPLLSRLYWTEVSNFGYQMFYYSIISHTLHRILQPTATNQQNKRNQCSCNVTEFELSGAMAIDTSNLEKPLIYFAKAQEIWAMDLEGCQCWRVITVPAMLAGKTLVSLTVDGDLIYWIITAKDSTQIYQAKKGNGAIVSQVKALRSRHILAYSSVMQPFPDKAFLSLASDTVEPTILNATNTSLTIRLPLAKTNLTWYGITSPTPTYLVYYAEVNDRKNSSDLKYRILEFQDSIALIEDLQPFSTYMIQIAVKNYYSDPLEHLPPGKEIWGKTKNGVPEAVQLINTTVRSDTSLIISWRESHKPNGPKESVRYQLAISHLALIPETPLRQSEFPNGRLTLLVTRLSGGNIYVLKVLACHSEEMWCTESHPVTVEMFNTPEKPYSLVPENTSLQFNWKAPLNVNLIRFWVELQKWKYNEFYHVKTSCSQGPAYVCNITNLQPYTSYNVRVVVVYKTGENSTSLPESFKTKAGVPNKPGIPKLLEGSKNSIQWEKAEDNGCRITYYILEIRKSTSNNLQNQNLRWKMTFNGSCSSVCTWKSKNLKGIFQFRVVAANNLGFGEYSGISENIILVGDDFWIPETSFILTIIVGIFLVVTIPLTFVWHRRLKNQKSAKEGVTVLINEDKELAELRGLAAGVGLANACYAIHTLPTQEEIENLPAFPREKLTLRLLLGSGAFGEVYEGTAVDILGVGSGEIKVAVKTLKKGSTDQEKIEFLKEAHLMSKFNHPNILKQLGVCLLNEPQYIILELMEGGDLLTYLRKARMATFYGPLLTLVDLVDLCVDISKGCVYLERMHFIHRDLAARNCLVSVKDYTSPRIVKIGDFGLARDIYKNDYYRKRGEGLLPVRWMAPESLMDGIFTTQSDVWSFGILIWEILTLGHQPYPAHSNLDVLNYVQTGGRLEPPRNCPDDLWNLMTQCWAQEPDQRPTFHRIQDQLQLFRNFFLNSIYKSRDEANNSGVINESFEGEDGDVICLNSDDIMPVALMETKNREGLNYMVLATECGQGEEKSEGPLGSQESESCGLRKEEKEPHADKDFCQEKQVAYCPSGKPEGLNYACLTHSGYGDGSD

`c1ccc(CNc2ccc3ncc(-c4ccc(OCC[C@@H]5CCCN5)cc4)n3n2)cc1` [Example 6, N-Benzyl-3-[4-[2-[(2S)-pyrrolidin-2-yl]ethoxy]phenyl]imidazo[1,2-b]pyridazin-6-amine]: the IC50 in assay [1] is 1 to 10 nM; in assay [2], 20 to 100 nM; in assay [3] it was 20 to 100 nM.

Regarding `CN[C@H]1CC(=O)N(c2ccc(-c3cnc4ccc(O[C@H](C)c5cccc(F)c5)nn34)cc2)C1` [Example 80, (4S)-1-[4-[6-[(1R)-1-(3-Fluorophenyl)ethoxy]imidazo[1,2-b]pyridazin-3-yl]phenyl]-4-(methylamino)pyrrolidin-2-one], the half-inhibitory concentration (IC50) in assay [1] is less than 1 nM; in assay [2], less than 20 nM; in assay [3] it was 20 to 100 nM.

As for `CN(Cc1cc(F)cc(F)c1)c1ccc2ncc(-c3ccc(N4C[C@@H](N)CC4=O)cc3)n2n1` [Example 120, (4S)-4-Amino-1-[4-[6-[(3,5-difluorophenyl)methyl-methylamino]imidazo[1,2-b]pyridazin-3-yl]phenyl]pyrrolidin-2-one], the IC50 in assay [1] was less than 1 nM; in assay [2], less than 20 nM; in assay [3], less than 20 nM.

Turning to `C[C@@H](Oc1ccc2ncc(-c3ccc(N4C[C@@H](N)CC4=O)cc3F)n2n1)c1cncc(F)c1` [Example 110, (4S)-4-Amino-1-[3-fluoro-4-[6-[(1R)-1-(5-fluoro-3-pyridyl)ethoxy]imidazo[1,2-b]pyridazin-3-yl]phenyl]pyrrolidin-2-one], the IC50 in assay [1] was 1 to 10 nM; in assay [2], less than 20 nM; in assay [3] it was 20 to 100 nM.

Regarding `C[C@@H](Nc1ccc2ncc(-c3ccc(OC[C@@H]4CCN4)c(F)c3)n2n1)c1cccc(F)c1` [Example 44, 3-[4-[[(2S)-Azetidin-2-yl]methoxy]-3-fluoro-phenyl]-N-[(1R)-1-(3-fluorophenyl)ethyl]imidazo[1,2-b]pyridazin-6-amine], the IC50 in assay [1] is less than 1 nM; in assay [2], less than 20 nM; in assay [3], less than 20 nM.

For `C[C@@H](Nc1ccc2ncc(-c3ccc(O[C@H]4CCC[C@H]4N)cc3)n2n1)c1cccc(F)c1` [Example 40, 3-[4-[(1S,2R)-2-Aminocyclopentoxy]phenyl]-N-[(1R)-1-(3-fluorophenyl)ethyl]imidazo[1,2-b]pyridazin-6-amine], the results for the IC50 in assay [1], in assay [2] and in assay [3] were less than 1 nM, less than 20 nM and less than 20 nM, respectively.

As to `C[C@@H](Nc1ccc2ncc(-c3ccc(OCCN)cc3)n2n1)c1cccc(F)c1` [Example 26, 3-[4-(2-Aminoethoxy)phenyl]-N-[(1R)-1-(3-fluorophenyl)ethyl]imidazo[1,2-b]pyridazin-6-amine], the IC50 is less than 1 nM in assay [1], less than 20 nM in assay [2] and less than 20 nM in assay [3].

Consider `CN(Cc1cccc(F)c1)c1ccc2ncc(-c3ccc(N4CC(N)CC4=O)cc3)n2n1` (stereo not drawn) [Example 82, 4-Amino-1-[4-[6-[(3-fluorophenyl)methyl-methylamino]imidazo[1,2-b]pyridazin-3-yl]phenyl]pyrrolidin-2-one], for which the IC50 in assay [1] is less than 1 nM; in assay [2] it was less than 20 nM; in assay [3], 20 to 100 nM.

Consider `C[C@@H](Oc1ccc2ncc(-c3ccc(OC4CCNCC4)cc3)n2n1)c1cccc(F)c1` [Example 15, 6-[(1R)-1-(3-Fluorophenyl)ethoxy]-3-[4-(4-piperidyloxy)phenyl]imidazo[1,2-b]pyridazine], for which the IC50 in assay [1] is 1 to 10 nM; in assay [2], 20 to 100 nM; in assay [3], 100 to 600 nM.

On to `C[C@@H](Nc1ccc2ncc(-c3ccc(O[C@@H]4CCC[C@@H]4N)cc3)n2n1)c1cccc(F)c1` [Example 36, 3-[4-[(1R,2S)-2-Aminocyclopentoxy]phenyl]-N-[(1R)-1-(3-fluorophenyl)ethyl]imidazo[1,2-b]pyridazin-6-amine], for which the IC50 is less than 1 nM in assay [1], less than 20 nM in assay [2] and 100 to 600 nM in assay [3].

For the compound `C[C@@H](Nc1ccc2ncc(-c3ccc(N4C[C@@H](N)CC4=O)c(F)c3)n2n1)c1cccc(F)c1` [Example 92, (4S)-4-Amino-1-[2-fluoro-4-[6-[[(1R)-1-(3-fluorophenyl)ethyl]amino]imidazo[1,2-b]pyridazin-3-yl]phenyl]pyrrolidin-2-one], the IC50 in assay [1] is less than 1 nM; in assay [2], less than 20 nM; in assay [3], less than 20 nM.

As to `C[C@@H](Nc1ccc2ncc(-c3ccc(OC[C@@H]4CCCN4)cc3)n2n1)c1ccccc1` [Example 19, N-[(1R)-1-Phenylethyl]-3-[4-[[(2S)-pyrrolidin-2-yl]methoxy]phenyl]imidazo[1,2-b]pyridazin-6-amine], the IC50 was 1 to 10 nM in assay [1], less than 20 nM in assay [2] and 100 to 600 nM in assay [3].

As to `CN(Cc1ccccc1)c1ccc2ncc(-c3ccc(N4C[C@@H](N)CC4=O)cc3)n2n1` [Example 94, (4S)-4-Amino-1-[4-[6-[benzyl(methyl)amino]imidazo[1,2-b]pyridazin-3-yl]phenyl]pyrrolidin-2-one], the IC50 in assay [1] lay within 1 to 10 nM; in assay [2] it was 20 to 100 nM; in assay [3], 100 to 600 nM.

For `Cc1cc(N2C[C@@H](N)CC2=O)ccc1-c1cnc2ccc(N[C@H](C)c3ccccc3)nn12` [Example 89, (4S)-4-Amino-1-[3-methyl-1-[6-[[(1R)-1-phenylethyl]amino]imidazo[1,2-b]yl]phenyl]pyrrolidin-2-one], the 50% inhibitory concentration (IC50) was in the range of 10 to 60 nM in assay [1], 20 to 100 nM in assay [2] and 100 to 600 nM in assay [3].

As for `CC(Oc1ccc2ncc(-c3ccc(N4C[C@@H](N)CC4=O)cc3)n2n1)c1nccs1` (stereo partly drawn) [Example 105, (4S)-4-Amino-1-[4-[6-(1-thiazol-2-ylethoxy)imidazo[1,2-b]pyridazin-3-yl]phenyl]pyrrolidin-2-one], the IC50 lay in the range of 10 to 60 nM in assay [1], 20 to 100 nM in assay [2] and 100 to 600 nM in assay [3].

Turning to `CN(Cc1cncc(F)c1)c1ccc2ncc(-c3ccc(N4CC(C)(N)CC4=O)cc3)n2n1` (stereo not drawn) [Example 119, 4-Amino-1-[4-[6-[(5-fluoro-3-pyridyl)methyl-methylamino]imidazo[1,2-b]pyridazin-3-yl]phenyl]-4-methylpyrrolidin-2-one], the IC50 in assay [1] is 1 to 10 nM; in assay [2] it was less than 20 nM; in assay [3] it was less than 20 nM.

On to `CN(Cc1cc(F)ccc1Cl)c1ccc2ncc(-c3ccc(N4C[C@@H](N)CC4=O)cc3)n2n1` [Example 99, (4S)-4-Amino-1-[4-[6-[(2-chloro-5-fluorophenyl)methyl-methylamino]imidazo[1,2-b]pyridazin-3-yl]phenyl]pyrrolidin-2-one], for which the IC50 in assay [1] was 1 to 10 nM; in assay [2], 20 to 100 nM; in assay [3], 20 to 100 nM.

As for `CNCCCOc1ccc(-c2cnc3ccc(N[C@H](C)c4cccc(F)c4)nn23)cc1` [Example 31], the IC50 in assay [1] was 1 to 10 nM; in assay [2], less than 20 nM; in assay [3] it was 20 to 100 nM.

For the compound `C[C@@H](Nc1ccc2ncc(-c3ccc(OCCN(C)C)nc3)n2n1)c1cccc(F)c1` [Example 71, 3-[6-(2-Dimethylaminoethoxy)-3-pyridyl]-N-[(1R)-1-(3-fluorophenyl)ethyl]imidazo[1,2-b]pyridazin-6-amine], the values for the IC50 in assay [1], in assay [2] and in assay [3] were 1 to 10 nM, less than 20 nM and less than 20 nM, respectively.

With `C[C@@H](Nc1ccc2ncc(-c3ccc(OC4CNC4)cc3)n2n1)c1cccc(F)c1` [Example 25, 3-[4-(Azetidin-3-yloxy)phenyl]-N-[(1R)-1-(3-fluorophenyl)ethyl]imidazo[1,2-b]pyridazin-6-amine], the figures for the IC50 in assay [1], in assay [2] and in assay [3] were 1 to 10 nM, less than 20 nM and 20 to 100 nM, respectively.

For the compound `CN(Cc1cncc(F)c1)c1ccc2ncc(-c3ccc(N4C[C@@H](N)CC4=O)cc3)n2n1` [Example 118, (4S)-4-Amino-1-[4-[6-[(5-fluoro-3-pyridyl)methyl-methylamino]imidazo[1,2-b]pyridazin-3-yl]phenyl]pyrrolidin-2-one], the IC50 in assay [1] is 1 to 10 nM; in assay [2], less than 20 nM; in assay [3], less than 20 nM.

For `C[C@@H](Nc1ccc2ncc(-c3ccc(OC[C@@H]4CCN4)cc3F)n2n1)c1cccc(F)c1` [Example 43, 3-[4-[[(2S)-Azetidin-2-yl]methoxy]-2-fluoro-phenyl]-N-[(1R)-1-(3-fluorophenyl)ethyl]imidazo[1,2-b]pyridazin-6-amine], the IC50 in assay [1] is less than 1 nM; in assay [2], less than 20 nM; in assay [3] it was less than 20 nM.
